Test results reported in US5623080A, “Fluorone and pyronin Y derivatives” (Spectra Group Limited, Inc., priority 1995, dated 1997).

Assays:
Format in all cases: physicochemical
[1] = fluorescence (λf, φf)
Text: In Table 2 below, the properties of the foregoing initiators are shown:
Entries in the table are in the solvents according to the following order.

[2] = absorption wavelength (λmax) and extinction (ε)
[3] = pKa
Text: (§1) In Table 2 below, the properties of the foregoing initiators are shown: […]

[4] = oxidation and reduction potentials (Eox, Ered); settings: in V (unit assumed)
Text: as §1

φf [1]: .52 | λf ([1]; MeOH): 539 nm | λmax in EtOH (first value) ([2]; EtOH, Table 1): 530 | ε (first value) ([2]; EtOH, at first λmax, Table 1, in M-1cm-1 (unit assumed)): 39300 | λmax ([2]; methanol, synthesis example): 526 nm | pKa [3]: 3.28 | Eox [4]: 1.099 | Ered [4]: -.95
Structure (SMILES): O=c1c(Br)cc2cc3cc(Br)c(O)c(Br)c3oc-2c1Br [TBHF, 3-hydroxy-2,4,5,7-tetrabromo-6-fluorone]
